Measurements: publication PMC5365662, “A Short Double-Stapled Peptide Inhibits Respiratory Syncytial Virus Entry and Spreading” (Antimicrobial Agents and Chemotherapy, 2017)
Bridge positions count the residues as written; N and C are the ends. Square brackets hold non-standard residues; d marks the D form. Peptide text beside a SMILES is read from it. R8 = C=CCCCCCC[C@@](C)(N)C(=O)O; R5 = C=CCCC[C@@](C)(N)C(=O)O; S5 = C=CCCC[C@](C)(N)C(=O)O

What was measured:
circular dichroism = conditions: 10 mM phosphate; pH 7.5; 25 °C; 50 uM
[1] = tested on: 5HB, a recombinant protein containing 3 HR1 domains covalently attached to 2 HR2 domains; conditions: for Kd: competition with fluorescently labeled T108 probe (2 nM), 5HB 50 nM, 10 min preincubation + 30 min room temperature, duplicates
Text: The RSV HR2 region (residues 476 to 524) is a 49-amino-acid sequence that has been extensively characterized (Fig. 1). HR2 is a largely unstructured peptide in aqueous solution folding into an α-helix upon binding to trimeric HR1 coiled coils ([20]). […] We reduced HR2 (aa 483 to 516) into three short overlapping subdomains (subdomains 1 to 3) (Fig. 1). These peptides were scanned for various stapling combinations. […] Far-UV circular dichroism (CD) spectropolarimetry was used to investigate the effect of stapling on the α-helical content of the peptides. […] To assess the propensity of the stapled peptides to hinder the formation of the postfusion six-helix bundle required for viral cell entry, we used a 5-helix bundle (5HB) biochemical fluorescence polarization (FP) competition assay as previously described ([21], [22]).
The coding sequence of 5HB was designed as described previously and de novo synthesized by Genscript ([21]). The HR1 (aa 126 to 182) and HR2 (aa 476 to 524) coding sequences from wild-type RSV A2 strain F ([36]) were codon optimized for overexpression in Escherichia coli and cloned at NdeI/BamHI restriction sites of pET-15b to generate the expression plasmid for 5HB. The 5HB expression construct was transformed into Escherichia coli BL21(DE3). Cells were grown at 37°C to an optical density at 600 nm of 0.8 followed by induction with isopropyl-1-thio-β-D-galactopyranoside at a final concentration of 0.5 mM for 12 to 15 h. Cells were harvested by centrifugation, washed twice with PBS, and resuspended in 20 ml of PBS (pH 7.4), 500 mM NaCl, and 1% Triton X-100 supplemented with complete protease inhibitor. Cell suspensions were disrupted by sonication. Cell debris was removed through ultracentrifugation at 18,000 × g for 1 h at 4°C, and clarified cell lysate was mixed with 1 ml of nickel-nitrilotriacetic acid (Ni-NTA) agarose beads (Qiagen) preequilibrated with 20 ml of lysis buffer. The suspension was agitated for 1 h at 4°C and loaded onto a 5-ml polypropylene column (Qiagen). The column was washed twice with 8 ml of PBS (pH 7.4), 500 mM NaCl, 1% Triton X-100, and 100 mM imidazole. Proteins were eluted with 5 × 500 μl of a buffer containing PBS (pH 7.4), 300 mM imidazole, and 500 mM NaCl. The imidazole was removed by dialysis, and protein purity was assessed by SDS-polyacrylamide gel electrophoresis followed by Coomassie blue staining. Protein concentration was determined with the Qubit 2.0 Fluorometer (Life Technologies).
The T108 ([12]) peptide probe was synthesized by standard SPPS procedures using HCTU as a coupling reagent as described above. A 10-μl volume of recombinant 5HB protein in FP buffer (20 mM PBS [pH 7.4], 500 mM NaCl, 0.01% [vol/vol] Tween 20, and 0.05 mg/ml bovine gamma globulin) was preincubated for 10 min at room temperature with 10 μl of the appropriate concentration of the inhibitor, after which 10 μl of fluorescein isothiocyanate (FITC)-T106 was added and further incubated for 30 min at room temperature. The final concentrations of protein and probe were 50 nM and 2 nM, respectively. The fluorescence polarization assay was performed in 384-well plates using a Spectramax Paradigm (Molecular Devices), using excitation and emission wavelengths of 485 nm and 535 nm, respectively. The acquisition time was 700 ms, and the read height was 1 mm. All experiments were performed in duplicate. […] In order to ensure robust fitting for some fits, r0 was kept constant at the value measured for the free tracer in buffer.

[2] = tested on: rHRSV-mCherry in HEp-2 cells; test: rHRSV-mCherry inhibition assay; format: cell-based, human respiratory syncytial virus; conditions: Table 3 (Ala scan); HEp-2 cells, rHRSV-mCherry MOI 0.2, 2-fold serial dilutions (11 dilutions), duplicate; ± SD of fit
Procedure: To measure the inhibitory activity of the peptide, the mCherry red fluorescence was quantified 48 h postinfection (p.i.).
Viral replication was quantified by measuring the mCherry fluorescence at 48 h p.i. and normalized based on the fluorescence of infected and untreated cells. (B) Cytotoxicity assay. HEp-2 cells were incubated in the presence of serial dilutions of peptides, and cell survival was quantified using the CellTiter-Glo Luminescent cell viability assay 24 h after the addition of the peptides. The signal was normalized based on the luminescence obtained for untreated cells. Error bars are standard deviations from duplicates.
HEp-2 cells were seeded at 5 × 10^4 cells per well in a 96-well plate the day before the infection. Peptides were 2-fold serially diluted in dimethyl sulfoxide (DMSO) (11 dilutions) and then further diluted in EMEM without phenol red and preincubated for 15 to 20 min with rHRSV-mCherry ([24]) at a final dilution with an MOI of 0.2 ([24]). The cells were incubated with the virus-peptide mixtures for a period of 1.5 to 2 h. The medium was then replaced by EMEM without phenol red containing 2% fetal bovine serum and the same concentration of peptide as the one that was used during the infection step. Plates were incubated 48 h at 37°C, and the mCherry fluorescence was measured using a spectrofluorometer (Tecan infinite M200PRO) with excitation and emission wavelengths of 580 and 620 nm, respectively. Relative fluorescence was normalized by the fluorescence of nontreated infected cells. Noninfected HEp-2 cells were used as standards for fluorescence background levels. Each experiment was performed in duplicate and repeated at least twice. The resulting inhibition curves were fitted in Igor Pro as described above.

Row | SMILES | helicity (circular dichroism) [%] | competition with binding of fluorescently labeled T108 to recombinant 5HB (in words) ([1]; Ala-scan variants, FP) | EC50 [2] [µM] | Kd [1] [µM]
1 | CC[C@H](C)[C@H](NC(=O)[C@H](Cc1ccccc1)NC(=O)[C@]1(C)CCCC=CCCC[C@](C)(NC(=O)[C@@H](NC(=O)[C@H](CCCCN)NC(=O)[C@H](CCC(=O)O)NC(C)=O)[C@@H](C)CC)C(=O)N[C@@H](CCC(N)=O)C(=O)N[C@@H](CO)C(=O)N[C@@H](CC(C)C)C(=O)N1)C(=O)N[C@@]1(C)CCCC=CCCC[C@@](C)(C(=O)N[C@@H](CC(C)C)C(=O)N[C@@H](CC(C)C)C(=O)N[C@@H](Cc2c[nH]cn2)C(=O)N[C@@H](CC(N)=O)C(=O)N[C@H](C(N)=O)C(C)C)NC(=O)[C@H](CC(=O)O)NC(=O)[C@H](CO)NC(=O)[C@H](C)NC1=O [Peptide K508A] (Ac-EKI[S5]QSL[S5]FI[S5]ASD[S5]LLHNV-NH2; staple 4-8, 11-15) | 76 | none of these variants were able to compete | 10.9 ± 13.9 | 
2 | CC[C@H](C)[C@H](NC(=O)[C@H](CCCCN)NC(=O)[C@H](CCC(=O)O)NC(=O)[C@H](CC(N)=O)NC(=O)[C@@H](NC(=O)[C@H](CCC(N)=O)NC(=O)[C@H](CO)NC(=O)[C@@H](NC(=O)[C@H](CO)NC(=O)[C@]1(C)CCCC=CCCC[C@](C)(NC(=O)[C@H](CO)NC(=O)[C@@H]2CCCN2C(=O)[C@H](Cc2ccccc2)NC(=O)[C@H](CCC(=O)O)NC(C)=O)C(=O)N[C@@H](CCC(=O)O)C(=O)N[C@@H](Cc2ccccc2)C(=O)N[C@@H](CC(=O)O)C(=O)N1)[C@@H](C)CC)C(C)C)C(=O)N[C@@H](CC(N)=O)C(N)=O [Peptide 1e] (Ac-EFPS[S5]EFD[S5]SISQVNEKIN-NH2; staple 5-9) | 35.5 |  |  | 15 ± 3
3 | CC[C@H](C)[C@H](NC(=O)[C@H](Cc1ccccc1)NC(=O)[C@]1(C)CCCC=CCCCCCC[C@@](C)(NC(=O)[C@H](CC(N)=O)NC(=O)[C@@H](NC(=O)[C@H](CCC(N)=O)NC(=O)[C@H](CO)NC(=O)[C@@H](NC(=O)[C@H](CCC(=O)O)NC(C)=O)[C@@H](C)CC)C(C)C)C(=O)N[C@@H](CCCCN)C(=O)N[C@@H]([C@@H](C)CC)C(=O)N[C@@H](CC(N)=O)C(=O)N[C@@H](CCC(N)=O)C(=O)N[C@@H](CO)C(=O)N[C@@H](CC(C)C)C(=O)N1)C(=O)N[C@@H](CCCNC(=N)N)C(N)=O [Peptide 2e] (Ac-EISQVN[R8]KINQSL[S5]FIR-NH2; staple 7-14) | 27.4 |  |  | 76 ± 4
4 | CC[C@H](C)[C@H](NC(=O)[C@H](Cc1ccccc1)NC(=O)[C@H](C)NC(=O)[C@H](CC(C)C)NC(=O)[C@H](CO)NC(=O)[C@H](CCC(N)=O)NC(=O)[C@H](CCC(=O)O)NC(C)=O)C(=O)N[C@@H](CCCNC(=N)N)C(=O)N[C@@H](CCCCN)C(=O)N[C@@H](CO)C(=O)N[C@@H](CC(=O)O)C(=O)N[C@@]1(C)CCCC=CCCC[C@@](C)(C(=O)N[C@H](C(N)=O)C(C)C)NC(=O)[C@H](Cc2c[nH]cn2)NC(=O)[C@H](CC(C)C)NC(=O)[C@H](CC(C)C)NC1=O [Peptide 3c] (Ac-EQSLAFIRKSD[S5]LLH[S5]V-NH2; staple 12-16) | 18.7 |  |  | > 216
5 | CC[C@H](C)[C@H](NC(=O)[C@H](Cc1ccccc1)NC(=O)[C@H](C)NC(=O)[C@H](CC(C)C)NC(=O)[C@H](CO)NC(=O)[C@]1(C)CCCC=CCCC[C@@](C)(NC(=O)[C@H](CCC(=O)O)NC(=O)[C@H](CC(N)=O)NC(=O)[C@@H](NC(=O)[C@H](CCC(N)=O)NC(=O)[C@H](CO)NC(=O)[C@@H](NC(=O)[C@H](CCC(=O)O)NC(C)=O)[C@@H](C)CC)C(C)C)C(=O)N[C@@H]([C@@H](C)CC)C(=O)N[C@@H](CC(N)=O)C(=O)N1)C(=O)N[C@@H](CCCNC(=N)N)C(N)=O [Peptide 2c] (Ac-EISQVNE[R5]IN[S5]SLAFIR-NH2; staple 8-11) | 13.8 |  |  | 125 ± 16
6 | CC[C@H](C)[C@H](NC(=O)[C@H](CCC(=O)O)NC(C)=O)C(=O)N[C@@H](CO)C(=O)N[C@@H](CCC(N)=O)C(=O)N[C@H](C(=O)N[C@@H](CC(N)=O)C(=O)N[C@@H](CCC(=O)O)C(=O)N[C@@H](CCCCN)C(=O)N[C@H](C(=O)N[C@]1(C)CCCCCCC=CCCC[C@@](C)(C(N)=O)NC(=O)[C@H]([C@@H](C)CC)NC(=O)[C@H](Cc2ccccc2)NC(=O)[C@H](C)NC(=O)[C@H](CC(C)C)NC(=O)[C@H](CO)NC(=O)[C@H](CCC(N)=O)NC1=O)[C@@H](C)CC)C(C)C [Peptide 2f] (Ac-EISQVNEKI[R8]QSLAFI[S5]-NH2; staple 10-17) | 15.7 |  |  | 363 ± 238
7 | CC[C@H](C)[C@H](NC(=O)[C@H](CCCCN)NC(=O)[C@]1(C)CCCC=CCCC[C@](C)(NC(=O)[C@@H](NC(=O)[C@H](CO)NC(=O)[C@H](C)NC(=O)[C@H](CC(=O)O)NC(=O)[C@H](Cc2ccccc2)NC(=O)[C@H](CCC(=O)O)NC(=O)[C@H](CC(=O)O)NC(=O)[C@H](CO)NC(=O)[C@@H]2CCCN2C(=O)[C@H](Cc2ccccc2)NC(=O)[C@H](CCC(=O)O)NC(C)=O)[C@@H](C)CC)C(=O)N[C@@H](CCC(N)=O)C(=O)N[C@@H](C(C)C)C(=O)N[C@@H](CC(N)=O)C(=O)N1)C(=O)N[C@@H](CC(N)=O)C(N)=O [Peptide 1g] (Ac-EFPSDEFDASI[S5]QVN[S5]KIN-NH2; staple 12-16) | 46.8 |  |  | 191 ± 19
8 | CC[C@H](C)[C@H](NC(=O)[C@H](Cc1ccccc1)NC(=O)[C@H](C)NC(=O)[C@H](CC(C)C)NC(=O)[C@H](CO)NC(=O)[C@H](CCC(N)=O)NC(=O)[C@H](CC(N)=O)NC(=O)[C@@H](NC(=O)[C@]1(C)CCCC=CCCC[C@](C)(NC(=O)[C@H](CO)NC(=O)[C@@H](NC(=O)[C@H](CCC(=O)O)NC(C)=O)[C@@H](C)CC)C(=O)N[C@@H](C(C)C)C(=O)N[C@@H](CC(N)=O)C(=O)N[C@@H](CCC(=O)O)C(=O)N1)[C@@H](C)CC)C(=O)N[C@@H](CCCNC(=N)N)C(N)=O [Peptide 2a] (Ac-EIS[S5]VNE[S5]INQSLAFIR-NH2; staple 4-8) | 5.2 |  |  | 405 ± 121
9 | CC[C@H](C)[C@H](NC(=O)[C@H](CO)NC(=O)[C@H](C)NC(=O)[C@H](CC(=O)O)NC(=O)[C@H](Cc1ccccc1)NC(=O)[C@H](CCC(=O)O)NC(=O)[C@H](CC(=O)O)NC(=O)[C@H](CO)NC(=O)[C@@H]1CCCN1C(=O)[C@H](Cc1ccccc1)NC(=O)[C@H](CCC(=O)O)NC(C)=O)C(=O)N[C@]1(C)CCCCCCC=CCCC[C@@](C)(C(N)=O)NC(=O)[C@H]([C@@H](C)CC)NC(=O)[C@H](CCCCN)NC(=O)[C@H](CCC(=O)O)NC(=O)[C@H](CC(N)=O)NC(=O)[C@H](C(C)C)NC(=O)[C@H](CCC(N)=O)NC1=O [Peptide 1c] (Ac-EFPSDEFDASI[R8]QVNEKI[S5]-NH2; staple 12-19) | 24.5 |  |  | 221 ± 33
